From patent publication US20240226211A9, “SEAWEED EXTRACTS, ISOLATED COMPOUNDS, AND METHODS OF TREATMENT” (University of Florida Research Foundation, Incorporated, priority 2017, published 2024)

Legend:
Staphylococcus aureus = experiment: Preliminary antibacterial testing; format: cell-based
Nrf2 = experiment: RNA interference of Nrf2 in IMR-32 cells, NQO1 induction; format: cell-based, human; details: IMR-32, 48 h RNAi then 24 h treatment
Method: The media was then carefully aspirated and replaced with a transfection mixture composed of siRNAs (50 nM) and siLentFect™ lipid transfection reagent (Bio-Rad Laboratories) in fresh medium. […] The siRNAs, siGENOME Non-Targeting siRNA Pools and siGENOME SMARTpool (human NFE2L2), were purchased from Dharmacon.
In order to determine whether NQO1 induction is Nrf2 dependent, IMR-32 cells were transfected with siRNA targeting Nrf2 or non-targeting siRNA. After 48 hours of RNAi of Nrf2, cells were treated with the samples or the vehicle control for 24 hours.

[1] = system: large intestine transcriptome; experiment: RNAseq of mouse large intestine; format: in vivo
Description: Briefly, 1st strand cDNA is primed by a modified N6 primer (the SMART N6 CDS primer), then base-pairs with these additional nucleotides, creating an extended template. The reverse transcriptase then switches templates and continues transcribing to the end of the oligonucleotide, resulting single-stranded cDNA contains sequences that are complementary to the SMARTer oligonucleotide. The SMARTer anchor sequence and the N6 sequence serve as universal priming sites for DNA amplification by PCR for 10 cycles. […] Libraries were quantitated by Bioanalyzer and qPCR (Kapa Biosystems, catalog number: KK4824). Finally, the libraries were pooled equal molar concentration and sequenced by Illumina 2X75 NextSeq 500.
In preparation for sequencing, barcoded libraries were sized on the bioanalyzer, quantitated by QUBIT and qPCR (Kapa Biosystems, catalog number: KK4824). Individual samples were pooled equimolarly at 4 nM. […] For RNA seq, 50-100 million reads provided sufficient depth for transcriptome analysis.
The web-based analysis tool, IPA, was used to further investigate the effect of the cymopols on the large intestine.

Nqo1 = Nqo1 transcript levels in mouse organs after oral gavage; format: in vivo; details: mice, particularly digestive tract
Method: (§1) The RNeasy Mini Kit (Qiagen) was used to collect total RNA from cells, while for mouse tissue, TRIzol reagent (Invitrogen) was used. In each case, total RNAs (2 μg) were reverse-transcribed into cDNAs, which were used as templates for TaqMan gene expression assay (Applied Biosystems) and detected using the 7300 Real-Time PCR System (Applied Biosystems). Each qPCR sample was tested in triplicate as a 25 μL total reaction volume (12.5 μL of Taqman 2× universal master mix, 1.25 μL of a 20× TaqMan gene expression assay probe, 1 μL of the above cDNA, and 10.25 μL of RNase-free sterile water). The qPCR method was designed as following: 50° C. for 2 min, 95° C. for 10 min, and 40 cycles of 95° C. for 15 s and 60° C. for 1 min. Endogenous controls used included GAPDH for IMR-32 cells and β-actin to normalize for RAW264.7 cells and mouse tissues.
(§2) The experiments were approved by the Institutional Animal Care & Use Committee at the University of Florida. Groups of 5-10 wild type male mice (C57BL/6J) were used for each treatment type. The mice were maintained under approved standard conditions. […] The tissues were harvested immediately, frozen on dry ice, and kept at −80° C. until analyzed.
(§3) A low dose and a high dose of cymopol (1) or the NP extract were administered to 4-week-old male mice via oral gavage.

[2] = system: ARE-luciferase reporter (human NQO1-ARE) in IMR-32 cells; experiment: ARE-luc reporter assay in IMR-32 cells; format: cell-based; details: IMR-32 cell line
Description: The ARE-luciferase reporter construct (ARE-luc) contains the core sequence of human NQO1-ARE1. The mock plasmid (pcDNA3-mRFP) was purchased from Addgene (plasmid 13032). The following plasmids were reported by Zhang et a/.2003 [Zhang, D. D., and Hannink, M. (2003) Distinct cysteine residues in Keap1 are required for Keap1-dependent ubiquitination of Nrf2 and for stabilization of Nrf2 by chemopreventive agents and oxidative stress. Mol. Cell. Biol. 23, 8137-8151]. The Keap1-CBD plasmid carries the entire open reading frame (ORF) of human Keap1 fused to the chitin binding domain (CBD) of the Bacillus circulans chitinase A1 gene upstream of the Keap1 stop codon. Oligonucleotide-directed mutagenesis was used to generate the Keap1-C151S-CBD and Keap1-C288S-CBD plasmids. The HA-Cul3 plasmid was constructed by fusing an N-terminal hemagglutinin (HA) tag with a cDNA sequence coding for amino acids 1-380 of human Cul3 gene. The Gal4-Neh2 expression vector contains the codons for the first 97 amino acids (Neh2 domain) of human Nrf2 fused to the ORF of the Gal4 DNA-binding domain
An ARE-luciferase reporter plasmid and CMV-GFP plasmid (to monitor transfection efficiency) were co-transfected into a human androgen-sensitive prostate cancer cell line, LNCaP (6×10^4 cells/well), and a human neuroblastoma cell line, IMR-32 (3×10^4 cells/well), using Fugene® HD (Roche Diagnostics) in 96-well format. […] J Biol Chem. 2002; 277:388-394; Lee J M, Hanson J M, Chu W A, Johnson J A. Phosphatidylinositol 3-kinase, not extracellular signal-regulated kinase, regulates activation of the antioxidant-responsive element in IMR-32 human neuroblastoma cells. […] After 24 hours of incubation, cells were treated with extracts from Cymopolia barbata, a negative control (DMSO, 1%, v/v), and a positive control ([…] sulforaphane, SF, and tert-butylhydroquinone, tBHQ, respectively.) 24 hours post-treatment, luciferase activity was detected using BriteLite detection reagent (PerkinElmer). […]

Hmox1 = Hmox1 transcript levels in mouse organs after oral gavage; format: in vivo; details: mice, particularly digestive tract
Method: as §1, §2, §3

zebrafish = experiment: Phenotypic toxicity in zebrafish; format: in vivo, Danio rerio; details: embryos and adults
[3] = system: ARE-driven genes (GCLC, Gclm, TXNRD1, GSTA4, HMOX1); experiment: qPCR of ARE-driven genes in IMR-32 cells; format: cell-based, human
Method: as §1

[4] = Toxicity observation in mice after oral gavage; format: in vivo; details: oral gavage 3 consecutive days
Method: The experiments were approved by the Institutional Animal Care & Use Committee at the University of Florida. Groups of 5-10 wild type male mice (C57BL/6J) were used for each treatment type. The mice were maintained under approved standard conditions. Cymopol (1) and the non-polar extract (NP extract) were dissolved in Chremophor EL (Sigma) containing 10% DMSO and administered via oral gavage for 3 consecutive days, with 24 h between each treatment. […] 12 h following the final treatment, the mice were euthanized in 100% CO2. The tissues were harvested immediately, frozen on dry ice, and kept at −80° C. until analyzed.

Cox2 = Cox2 transcript levels in RAW264.7 macrophage cells; format: cell-based, mouse; details: 10 μM Compound 1, IFN-γ
Method: as §1
RAW264.7 cells were seeded in 6-well plates (8×10^5 cells/well) and incubated at 37° C. overnight.

CC(C)=CCC/C(C)=C/Cc1cc(O)c(Br)cc1O [Compound 1, (E)-2-bromo-5-(3,7-dimethylocta-2,6-dien-1-yl)benzene-1,4-diol]
antibacterial activity (Staphylococcus aureus): inhibited | induction of NQO1 transcript levels in siNrf2 transfected cells (Nrf2): inhibited in siNrf2 transfected cells | PI3K/Akt/mTOR pathway ([1]; large intestine RNAseq, IPA): greatly affected | Wnt/β-catenin or Sonic Hedgehog signalling ([1]; large intestine RNAseq, IPA): no notable difference | transcript levels of TNFα ([1]; large intestine, low dose): down-regulated | transcript levels of Nqo1 in various organs (Nqo1): elevated transcript levels of Nqo1 | activation of ARE-luc [2]: most active | transcript levels of Hmox1 in various organs (Hmox1): elevated transcript levels of Hmox1 | toxicity in zebrafish (zebrafish): demonstrate toxicities at fairly low concentrations | transcription of a series of ARE-driven genes [3]: induce the transcription of a series of ARE-driven genes | apparent toxicity [4]: No apparent toxicity was observed | reduction of Cox2 transcript levels (Cox2): 90%
